Measurements published in patent US11124481B2 (Exelixis, Inc., priority 2014, dated 2021).

How the values were obtained:
[1] = radiometabolite analysis in mouse plasma (radio-TLC)
U87 tumor cells = assay: dynamic PET imaging in mice with orthotopically implanted U87 tumor cells; assay type: in vivo, athymic BALB/C mice
Procedure: Rodent imaging experiments were performed on a dedicated small animal microPET® F120™ scanner (Siemens Preclinical Solutions, Knoxville, Tenn.). Both static and dynamic PET imaging studies were conducted on athymic BALB/C mice (Harlan) and stereotactically implanted U87 tumor cells. The mice were administered about 6.4-7.4 MBq (0.17-0.2 mCi) of [^18F]-Cabozantinib via the tail vein. The mice were anesthetized (2% isofluorane in O2 at a flow rate of 1 mL/min) during tracer injection and throughout the imaging period. After injection, each mouse was laid in the microPET scanner. A 10 minutes transmission scan was acquired using a ^57Co point source prior to either the 2 hour dynamic scan or the 45 min static scan starting at about 15 minutes after injection. Mice were visually monitored for breathing, and a heating pad was used to maintain body temperature throughout the entire procedure. […] Data were analyzed by manually drawing standardized volumes of interest using the Siemens ASIPro VM software package version 6.6. […]
FIG. 3 depicts Positron Emission Tomography (PET) images of mice injected with [^18F]-Cabozantinib. […] A tumor:brain ratio, which is the ratio of the amount of [^18F]-Cabozantinib in the tumor compared to the amount of [^18F]-Cabozantinib in the brain in non-tumor regions, of 2.6 to 2.8 was measured for U87 stereotactically implanted tumor cells. […]

[2] = biodistribution in mice with subcutaneous U87 tumor cells (gamma counter); assay type: in vivo, athymic BALB/C mice
Procedure: . After acute sedation with isofluorane (2%) animals were sacrificed by decapitation at 15 and 60 min following tracer injection. Blood samples were collected and portions of the liver, kidneys, heart, lungs, muscles, stomach, large intestine, small intestine, bladder, spleen, brain and femur were dissected and weighed. Radioactivity of each sample was measured using a gamma counter (1480 Wizard™ 3 Automatic Gamma Counter, PerkinElmer). Decay-corrected radioactivity concentrations were calculated as percentage of injected dose per gram tissue (% ID/g).

[3] = dynamic PET imaging in tumor-free control mice; assay type: in vivo, athymic BALB/C mice
Procedure: Rodent imaging experiments were performed on a dedicated small animal microPET® F120™ scanner (Siemens Preclinical Solutions, Knoxville, Tenn.). Both static and dynamic PET imaging studies were conducted on athymic BALB/C mice (Harlan) and stereotactically implanted U87 tumor cells. The mice were administered about 6.4-7.4 MBq (0.17-0.2 mCi) of [^18F]-Cabozantinib via the tail vein. The mice were anesthetized (2% isofluorane in O2 at a flow rate of 1 mL/min) during tracer injection and throughout the imaging period. After injection, each mouse was laid in the microPET scanner. A 10 minutes transmission scan was acquired using a ^57Co point source prior to either the 2 hour dynamic scan or the 45 min static scan starting at about 15 minutes after injection. Mice were visually monitored for breathing, and a heating pad was used to maintain body temperature throughout the entire procedure. PET data were reconstructed using an OSEM 2D algorithm into a 128×128×95 image matrix (resulting in final voxel dimensions of 0.79×0.79×0.8 mm). Dead time, decay correction, attenuation correction, and normalization were applied to all PET data. Data were analyzed by manually drawing standardized volumes of interest using the Siemens ASIPro VM software package version 6.6. […]

Structure (SMILES): COc1cc2nccc(Oc3ccc(NC(=O)C4(C(=O)Nc5ccc([18F])cc5)CC4)cc3)c2cc1OC [[^18F]-Cabozantinib, cyclopropane-1,1-dicarboxylic acid [4-(6,7-dimethoxy-quinolin-4-yloxy)-phenyl]-amide(4-[^18F]-fluoro-phenyl)amide]
- radiometabolites seen in plasma [1]: Only one radiometabolite
- tracer remaining intact in plasma ([1]; 15 and 60 minutes after injection): over 80%
- SUV mean, tumor uptake (U87 tumor cells; orthotopically implanted U87 mice, n=3): 0.50
- time of maximal tumor uptake post injection (U87 tumor cells; time activity curves over 2 hour period): 60 min
- tracer uptake blood ([2]; 15 minutes post injection, n=6): 1.8±0.2 % ID/g
- tracer uptake brain ([2]; 15 minutes post injection, n=6): 0.9±0.2 % ID/g
- tracer uptake femur ([2]; 15 minutes post injection, n=6): 2.9±1.0 % ID/g
- tracer uptake heart ([2]; 15 minutes post injection, n=6): 12.9±3.2 % ID/g
- tracer uptake kidneys ([2]; 15 minutes post injection, n=6): 14.2±3.0 % ID/g
- tracer uptake large intestines ([2]; 15 minutes post injection, n=6): 4.7±2.1 % ID/g
- tracer uptake liver ([2]; 15 minutes post injection, n=6): 14.4±3.1 % ID/g
- tracer uptake lungs ([2]; 15 minutes post injection, n=6): 6.5±1.1 % ID/g
- tracer uptake muscles ([2]; 15 minutes post injection, n=6): 4.4±1.1 % ID/g
- tracer uptake small intestines ([2]; 15 minutes post injection, n=6): 7.0±2.4 % ID/g
- tracer uptake spleen ([2]; 15 minutes post injection, n=6): 4.7±1.2 % ID/g
- tracer uptake stomach ([2]; 15 minutes post injection, n=6): 5.2±1.7 % ID/g
- tracer uptake bladder ([2]; 60 minutes post injection, n=6): 4.3±1.2 % ID/g
- tracer uptake blood ([2]; 60 minutes post injection, n=6): 2.2±0.3 % ID/g
- tracer uptake brain ([2]; 60 minutes post injection, n=6): 0.9±0.1 % ID/g
- tracer uptake femur ([2]; 60 minutes post injection, n=6): 1.8±0.8 % ID/g
- tracer uptake heart ([2]; 60 minutes post injection, n=6): 9.5±1.5 % ID/g
- tracer uptake kidneys ([2]; 60 minutes post injection, n=6): 11.7±1.5 % ID/g
- tracer uptake large intestines ([2]; 60 minutes post injection, n=6): 4.6±0.9 % ID/g
- tracer uptake liver ([2]; 60 minutes post injection, n=6): 14.0±1.9 % ID/g
- tracer uptake lungs ([2]; 60 minutes post injection, n=6): 4.9±0.8 % ID/g
- tracer uptake muscles ([2]; 60 minutes post injection, n=6): 4.2±0.3 % ID/g
- tracer uptake small intestines ([2]; 60 minutes post injection, n=6): 10.7±1.1 % ID/g
- tracer uptake spleen ([2]; 60 minutes post injection, n=6): 3.6±0.6 % ID/g
- tracer uptake stomach ([2]; 60 minutes post injection, n=6): 8.4±1.5 % ID/g
- crossing of the blood brain barrier ([2]; biodistribution, 15 and 60 minutes): did not appear to cross the blood brain barrier
- SUV mean, uptake in the brain ([3]; tumor-free control mice, summed PET images): 0.19
- crossing of the blood brain barrier ([3]; tumor-free mice, PET): does not cross the blood brain barrier
